The test system of series [1] is Leishmania amazonensis. Kind of series: Antileishmanial activity against Leishmania amazonensis promastigotes assessed as inhibition of parasite viability at 50 uM measured after 24 hrs by resazurin based colorimetric assay relative to control. It is filed as functional.
The test system of series [2] is Leishmania amazonensis. The experiment in a line: Antileishmanial activity against Leishmania amazonensis promastigotes assessed as inhibition of parasite viability measured after 24 hrs by resazurin based colorimetric assay. It is filed as functional, organism-based. On the technique in general: The colour change of resazurin is a common sign of viable cells or microbes.

The nature of series [3]: Cytotoxicity against mouse L929 cells assessed as cell viability at 100 uM measured after 24 hrs by MTT assay relative to control. Particulars: read-out: Activity. It is filed as toxicity, cell-based. Background: Formazan colour is commonly taken as a measure of viable cells.
A short description of series [4]: Cytotoxicity against mouse L929 cells assessed as cell viability upto 50 uM measured after 24 hrs by MTT assay relative to control. Particulars: read-out: Activity. It is filed as toxicity, cell-based.

Regarding `O=C(/C=C/C=C/c1ccccc1)c1cccc(Br)c1`, the inhibition at 50 µM with Leishmania amazonensis [1] was determined as 90.8%.

As for `O=C(/C=C/c1ccc2c(c1)OCO2)c1ccc(Br)cc1`, the inhibition at 50 µM with Leishmania amazonensis [1] turned out to be 87.5%.

For the molecule `COc1ccc(/C=C/C(=O)c2ccc(Br)cc2)cc1`, the inhibition at 50 µM with Leishmania amazonensis [1] was 80.7%.

For the molecule `O=C(/C=C/c1cccs1)c1ccc(Br)cc1`, the inhibition at 50 µM with Leishmania amazonensis [1] stood at 93.6%.

With `O=C(/C=C/c1ccccc1)c1ccccc1` [CHALCONE], the inhibition at 50 µM in the series on Leishmania amazonensis [1] came to 90.1%. In addition, in the series with Leishmania amazonensis [2], the IC50 is 10.6 µM.

As to `CN(C)c1ccc(/C=C/C(=O)c2ccc(Br)cc2)cc1`, the inhibition at 50 µM in the series with Leishmania amazonensis [1] is 91.2%.

With `O=C(/C=C/c1cccc2ccccc12)c1ccc(Br)cc1`, in the series with Leishmania amazonensis [1], the inhibition at 50 µM was 83.9%.

Take `O=C(/C=C/c1ccccc1F)c1ccc(Br)cc1`: the inhibition at 50 µM in the series with Leishmania amazonensis [1] stood at 99.4%. In addition, in series [3], the viability at 24 h, 100 µM is greater than 60%. For the same molecule, the half-inhibitory concentration (IC50) with Leishmania amazonensis [2] was determined as 23.9 µM. For the same molecule, the viability at 24 h, 50 µM in series [4] was greater than 80%.

Consider `C[C@@H]1[C@H](O)[C@@H](C)/C=C/C=C/C=C/C=C/C=C/C=C/C=C/[C@H](O[C@@H]2O[C@H](C)[C@@H](O)[C@H](N)[C@@H]2O)C[C@@H]2O[C@](O)(C[C@@H](O)C[C@@H](O)[C@H](O)CC[C@@H](O)C[C@@H](O)CC(=O)O[C@H]1C)C[C@H](O)[C@H]2C(=O)O` [AMPHOTERICIN B], for which the IC50 in the series with Leishmania amazonensis [2] is 0.115 µM.

As to `O=C(/C=C/C=C/c1ccccc1)c1ccc(Br)cc1`, the inhibition at 50 µM in the series with Leishmania amazonensis [1] was 33.8%.

As to `O=C(/C=C/c1cccc2ccccc12)c1cccc(Br)c1`, in the series on Leishmania amazonensis [1], the inhibition at 50 µM was determined as 90.8%.

With `O=C(/C=C/c1ccc(OCc2ccccc2)cc1)c1ccc(Br)cc1`, in the series on Leishmania amazonensis [1], the inhibition at 50 µM stood at 24.2%.

For `O=C(/C=C/c1cccs1)c1cccc(Br)c1`, the inhibition at 50 µM in the series on Leishmania amazonensis [1] came out at 86.7%.

Turning to `O=C(/C=C/c1ccccc1)c1cccc(Br)c1`, the inhibition at 50 µM with Leishmania amazonensis [1] stood at 99.8%. Moreover, the viability at 24 h, 100 µM in series [3] is greater than 60%. Moreover, the IC50 in the series with Leishmania amazonensis [2] is 13.8 µM. The viability at 24 h, 50 µM in series [4] was greater than 80%.

In the case of `COc1ccc(/C=C/C(=O)c2cccc(Br)c2)cc1`, the inhibition at 50 µM in the series with Leishmania amazonensis [1] amounted to 93%.

For `COc1cc(OC)c(OC)cc1/C=C/C(=O)c1ccc(Br)cc1`, in the series on Leishmania amazonensis [1], the inhibition at 50 µM stood at 98.2%. In addition, the viability at 24 h, 100 µM in series [3] was greater than 60%. The IC50 in the series on Leishmania amazonensis [2] worked out at 6.33 µM. Besides, in series [4], the viability at 24 h, 50 µM was greater than 80%.

As for `CSc1ccc(/C=C/C(=O)c2ccc(Br)cc2)cc1`, the inhibition at 50 µM with Leishmania amazonensis [1] was determined as 39.3%.

In the case of `Cc1ccc(/C=C/C(=O)c2ccc(Br)cc2)cc1`, the inhibition at 50 µM in the series on Leishmania amazonensis [1] amounted to 57%.

For `O=C(/C=C/c1ccc(OCc2ccccc2)cc1)c1cccc(Br)c1`, in the series with Leishmania amazonensis [1], the inhibition at 50 µM came out at 95%.

As for `CN(C)c1ccc(/C=C/C(=O)c2cccc(Br)c2)cc1`, in the series on Leishmania amazonensis [1], the inhibition at 50 µM came to 98.7%. Further, the viability at 24 h, 100 µM in series [3] is greater than 70%. Also, in the series on Leishmania amazonensis [2], the IC50 stood at 10.8 µM. Moreover, the viability at 24 h, 50 µM in series [4] was greater than 80%.

As for `Cc1ccc(/C=C/C(=O)c2cccc(Br)c2)cc1`, the inhibition at 50 µM with Leishmania amazonensis [1] was determined as 94.8%.

Turning to `O=C(/C=C/c1ccccc1F)c1cccc(Br)c1`, the inhibition at 50 µM in the series on Leishmania amazonensis [1] was found to be 91.7%.

On to `CSc1ccc(/C=C/C(=O)c2cccc(Br)c2)cc1`, for which the inhibition at 50 µM in the series with Leishmania amazonensis [1] was 97.3%. In addition, the viability at 24 h, 100 µM in series [3] was greater than 70%. Further, the 50% inhibitory concentration (IC50) in the series with Leishmania amazonensis [2] came to 11.4 µM. For the same molecule, the viability at 24 h, 50 µM in series [4] is greater than 80%.

The term inhibition denotes the share of the control response that was lost under treatment. Broadly, the IC50 is the concentration needed to halve the response being measured.
